Measured values reported in US8147838B2, “Peptide” (priority 2005, dated 2012).
No end group written: not given here.

Each sequence was assayed against MHC class I allele A*0101 (A1) (Homo sapiens, UniProt P04439, A114D/A174V/A182V/D101N/D185E/E176A/E190D/L180R/Q94H/R68K/S129P/T187R/V100A/V91M/W191G) (assay: iScore multi-parametric analysis, A*0101). Conditions: integrates half-life and ED50.
Assay type: binding
Method: (§1) Finally, multiparametric analysis is performed on the results from these assays and an iScore is generated. The iScore represents a measure of the overall quality of peptide-MHC binding, enabling candidate peptides to be ranked in order of binding quality and allowing rational prioritisation of peptides for functional cellular follow-up studies.
(§2) As part of the validation of the iTopia system, a panel of overlapping peptides derived from the CMV pp 65 protein were used and their binding properties for the A*0201 allele analysed. A number of T cell epitopes restricted by HLA A*0201 had already been identified (by more conventional methodologies) by other researchers for this protein. In the iTopia study, it was reported that an iScore of: >0.5 represented “good quality binding”; between 0.25 and 0.5 represented “medium quality binding”; and <0.25 represented “poor quality binding”. Six of the 20 peptides which gave a “good” iScore (>0.5) for A*0201, represented previously characterised CMV pp 65 A*0201 epitopes.
(§3) Each MHC class I allele has different binding properties and affinities for peptides which they bind. Therefore, information obtained with HLA A*0201 in which peptides are ranked as good, medium or poor binders using >0.5, 0.25-0.5 and <0.25 as thresholds is not necessarily transferable between alleles. Also, different proteins are likely to have distinct immunogenic profiles and the affinities between peptides and MHC class I molecules will be different between proteins. This may be particularly relevant in the case of self-antigens where immunogenicity is likely to be lower than in foreign proteins.
(§4) Multi-parametric analysis permits the integration of half-life and ED50 parameters in an integrated iScore. This reflects the capability of a peptide to reconstitute with MHC molecules in a stable complex, defining its overall level of binding i.e. the iScore value represents the overall quality of peptide-MHC binding and is used to rank candidate peptides as an indicator of functional relevance. The lead candidate epitopes for each allele are selected for cellular functional analysis to confirm their biological relevance.
(§5) The changes in gradient of the graphs in FIGS. 7 to 10 are indicated by a line which delineates the populations of iScores forming the basis of discrimination for further functional studies.

iScore (iTopia), A*0101 | Sequence
0.357 | HMEGYHYRY [Peptide 198]
0.12 | LASNHFLYL [Peptide 109]

Same assay, conditions: level of binding: >0.5, 0.25-0.5, <0.25

Sequence | iScore, MHC Class I Molecule A*0101
FARRPPLAE [Peptide 56] | 0
FEGMVVAAL [Peptide 98, FEGMVVAAL] | 0
FLASAVSAQ [Peptide 24] | 0
FSSSAPFLA [Peptide 21] | 0.023
GAFARRPPL [Peptide 55] | 0
GLPHIRVFL [Peptide 142] | 0
GSRLDEVRA [Peptide 64] | 0
GWVSSSSPT [Peptide 14] | 0
ILNHIVPPE [Peptide 90] | 0
LAELAALNL [Peptide 59] | 0
LALVLLGWV [Peptide 11] | 0
LAVLPAGAF [Peptide 52] | 0
LDLSHNPLA [Peptide 74] | 0
LLGWVSSSS [Peptide 13] | 0
LSGSRLDEV [Peptide 63] | 0
LSHNPLADL [Peptide 75] | 0
LSPFAFSGS [Peptide 79] | 0

Next, values leading:

iScore, MHC Class I Molecule A*0101 | Sequence
0 | EVVQGKDRL [Peptide 157]
0 | GLRRLELAS [Peptide 106]
0 | GMVVAALLA [Peptide 99]
0 | HFLYLPRDV [Peptide 111]
0 | HMADMVTWL [Peptide 151]
0.357 | HMEGYHYRY [Peptide 198]
0 | IKKWMHNIR [Peptide 191]
0 | ILPPSLQTS [Peptide 174]
0 | KVLHNGTLA [Peptide 136]
0 | KWMHNIRDA [Peptide 192]
0 | LALIGAIFL [Peptide 182]
0.12 | LASNHFLYL [Peptide 109]
0 | LDLSNNSLV [Peptide 120]
0 | LEDNALKVL [Peptide 133]
0 | LELASNHFL [Peptide 108]
0 | LHNGTLAEL [Peptide 137]
0 | LLAGRALQG [Peptide 102]
0 | LPRDVLAQL [Peptide 113]
0 | LQGLPHIRV [Peptide 141]
0 | LQGLRRLEL [Peptide 105]
0 | LSNNSLVSL [Peptide 121]
0 | LTHLESLHL [Peptide 129]
0 | LTNLSSNSD [Peptide 206]

What follows are sequences tested against MHC class I allele A*0201 (A2) (Homo sapiens, UniProt P04439, D140Y/D185E/D98H/E176V/E277Q/G131W/G231S/I119V/I121R/I166T/I218V/L300P/L318F/N151K/N90K/P208A/P217A/Q86G/Q94H/R138H/R169H/T345S) (assay: iScore multi-parametric analysis, A*0201). Conditions: level of binding: >0.5, 0.25-0.5, <0.25.
Assay type: binding
Method: as §1, §2, §3, §4, §5

Sequence | iScore, MHC Class I Molecule A*0201
FARRPPLAE [Peptide 56] | 0.042
FEGMVVAAL [Peptide 98, FEGMVVAAL] | 0.051
FLASAVSAQ [Peptide 24] | 0.134
FSSSAPFLA [Peptide 21] | 0.116
GAFARRPPL [Peptide 55] | 0.222
GLPHIRVFL [Peptide 142] | 1.39
GSRLDEVRA [Peptide 64] | 0.13
GWVSSSSPT [Peptide 14] | 0.044
ILNHIVPPE [Peptide 90] | 0.426
LAELAALNL [Peptide 59] | 0.72
LALVLLGWV [Peptide 11] | 0.237
LAVLPAGAF [Peptide 52] | 0.074
LDLSHNPLA [Peptide 74] | 0.226
LLGWVSSSS [Peptide 13] | 0.243
LSGSRLDEV [Peptide 63] | 0.075
LSHNPLADL [Peptide 75] | 0.095
LSPFAFSGS [Peptide 79] | 0.064

Other lines, results leading:

iScore, MHC Class I Molecule A*0201 | Sequence
0.139 | EVVQGKDRL [Peptide 157]
0.046 | GLRRLELAS [Peptide 106]
0.384 | GMVVAALLA [Peptide 99]
0.227 | HFLYLPRDV [Peptide 111]
0.821 | HMADMVTWL [Peptide 151]
0.24 | HMEGYHYRY [Peptide 198]
0.181 | IKKWMHNIR [Peptide 191]
0.523 | ILPPSLQTS [Peptide 174]
0.15 | KVLHNGTLA [Peptide 136]
0.045 | KWMHNIRDA [Peptide 192]
0.425 | LALIGAIFL [Peptide 182]
0.337 | LASNHFLYL [Peptide 109]
0.158 | LDLSNNSLV [Peptide 120]
0.122 | LEDNALKVL [Peptide 133]
0.151 | LELASNHFL [Peptide 108]
0.187 | LHNGTLAEL [Peptide 137]
0.176 | LLAGRALQG [Peptide 102]
0 | LPRDVLAQL [Peptide 113]
0.2 | LQGLPHIRV [Peptide 141]
0.114 | LQGLRRLEL [Peptide 105]
0.116 | LSNNSLVSL [Peptide 121]
0.143 | LTHLESLHL [Peptide 129]
0.027 | LTNLSSNSD [Peptide 206]

What follows are sequences tested against MHC class I allele A*0301 (A3) (Homo sapiens, UniProt P04439) (assay: iScore multi-parametric analysis, A*0301). Conditions: integrates half-life and ED50.
Assay type: binding
Method: as §1, §2, §3, §4, §5

iScore (iTopia), A*0301 | Sequence
0.189 | HMEGYHYRY [Peptide 198]
0.224 | LASNHFLYL [Peptide 109]

Sequence | iScore (iTopia), A*0301
GLPHIRVFL [Peptide 142] | 0.319

Same assay, conditions: level of binding: >0.5, 0.25-0.5, <0.25

Sequence | iScore, MHC Class I Molecule A*0301
FARRPPLAE [Peptide 56] | 0
FEGMVVAAL [Peptide 98, FEGMVVAAL] | 0
FLASAVSAQ [Peptide 24] | 0
FSSSAPFLA [Peptide 21] | 0
GAFARRPPL [Peptide 55] | 0
GLPHIRVFL [Peptide 142] | 0.319
GSRLDEVRA [Peptide 64] | 0
GWVSSSSPT [Peptide 14] | 0
ILNHIVPPE [Peptide 90] | 0
LAELAALNL [Peptide 59] | 0
LALVLLGWV [Peptide 11] | 0
LAVLPAGAF [Peptide 52] | 0
LDLSHNPLA [Peptide 74] | 0
LLGWVSSSS [Peptide 13] | 0
LSGSRLDEV [Peptide 63] | 0
LSHNPLADL [Peptide 75] | 0
LSPFAFSGS [Peptide 79] | 0

The remaining lines, values ahead:

iScore, MHC Class I Molecule A*0301 | Sequence
0 | EVVQGKDRL [Peptide 157]
0 | GLRRLELAS [Peptide 106]
0 | GMVVAALLA [Peptide 99]
0 | HFLYLPRDV [Peptide 111]
0 | HMADMVTWL [Peptide 151]
0.189 | HMEGYHYRY [Peptide 198]
0 | IKKWMHNIR [Peptide 191]
0 | ILPPSLQTS [Peptide 174]
0 | KVLHNGTLA [Peptide 136]
0 | KWMHNIRDA [Peptide 192]
0 | LALIGAIFL [Peptide 182]
0.224 | LASNHFLYL [Peptide 109]
0 | LDLSNNSLV [Peptide 120]
0 | LEDNALKVL [Peptide 133]
0 | LELASNHFL [Peptide 108]
0 | LHNGTLAEL [Peptide 137]
0 | LLAGRALQG [Peptide 102]
0 | LPRDVLAQL [Peptide 113]
0 | LQGLPHIRV [Peptide 141]
0 | LQGLRRLEL [Peptide 105]
0 | LSNNSLVSL [Peptide 121]
0 | LTHLESLHL [Peptide 129]
0 | LTNLSSNSD [Peptide 206]

What follows are sequences tested against MHC class I allele B*0702 (B7) (Homo sapiens, UniProt P01889) (assay: iScore multi-parametric analysis, B*0702). Conditions: level of binding: >0.5, 0.25-0.5, <0.25.
Method: as §1
As part of the validation of the iTopia system, a panel of overlapping peptides derived from the CMV pp 65 protein were used and their binding properties for the A*0201 allele analysed. A number of T cell epitopes restricted by HLA A*0201 had already been identified (by more conventional methodologies) by other researchers for this protein. In the iTopia study, it was reported that an iScore of: >0.5 represented “good quality binding”; between 0.25 and 0.5 represented “medium quality binding”; and <0.25 represented “poor quality binding”.
as §4

Sequence | iScore, MHC Class I Molecule B*0702
FARRPPLAE [Peptide 56] | 0
FEGMVVAAL [Peptide 98, FEGMVVAAL] | 0
FLASAVSAQ [Peptide 24] | 0
FSSSAPFLA [Peptide 21] | 0
GAFARRPPL [Peptide 55] | 0.359
GLPHIRVFL [Peptide 142] | 0.075
GSRLDEVRA [Peptide 64] | 0
GWVSSSSPT [Peptide 14] | 0
ILNHIVPPE [Peptide 90] | 0
LAELAALNL [Peptide 59] | 0.074
LALVLLGWV [Peptide 11] | 0
LAVLPAGAF [Peptide 52] | 0.049
LDLSHNPLA [Peptide 74] | 0
LLGWVSSSS [Peptide 13] | 0
LSGSRLDEV [Peptide 63] | 0.107
LSHNPLADL [Peptide 75] | 0
LSPFAFSGS [Peptide 79] | 0

Continued, values first:

iScore, MHC Class I Molecule B*0702 | Sequence
0 | EVVQGKDRL [Peptide 157]
0 | GLRRLELAS [Peptide 106]
0 | GMVVAALLA [Peptide 99]
0 | HFLYLPRDV [Peptide 111]
0 | HMADMVTWL [Peptide 151]
0 | HMEGYHYRY [Peptide 198]
0 | IKKWMHNIR [Peptide 191]
0 | ILPPSLQTS [Peptide 174]
0 | KVLHNGTLA [Peptide 136]
0 | KWMHNIRDA [Peptide 192]
0.067 | LALIGAIFL [Peptide 182]
0 | LASNHFLYL [Peptide 109]
0 | LDLSNNSLV [Peptide 120]
0 | LEDNALKVL [Peptide 133]
0 | LELASNHFL [Peptide 108]
0.026 | LHNGTLAEL [Peptide 137]
0 | LLAGRALQG [Peptide 102]
0.305 | LPRDVLAQL [Peptide 113]
0 | LQGLPHIRV [Peptide 141]
0.119 | LQGLRRLEL [Peptide 105]
0.112 | LSNNSLVSL [Peptide 121]
0 | LTHLESLHL [Peptide 129]
0 | LTNLSSNSD [Peptide 206]
